Our source for the relative viability values is the supplement of paper PMC10307832.

Common to all, as to assay: relative viability (nuclei count vs DMSO), 5 days (fraction); higher = more cells survive
Compound in assay [1]: CC(C)C[C@H](NC(=O)[C@H](CCc1ccccc1)NC(=O)CN1CCOCC1)C(=O)N[C@@H](Cc1ccccc1)C(=O)N[C@@H](CC(C)C)C(=O)[C@@]1(C)CO1 [Carfilzomib] + CC(C)C[C@H](NC(=O)[C@H](Cc1ccccc1)NC(=O)c1cnccn1)B(O)O [Bortezomib] (partner 0.002 µM)
In outline:
(§1)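 Nuclei were stained with Hoechst during a one-step fixation (final 0.05% Triton X-100, 1% formaldehyde, 1 ug/ml Hoechst) carried out 5 days after dosing, then counted on 4× images. The cells, lung cancer lines in 1536-well plates, had been dosed by pin tool the day after seeding with one drug alone or a fixed anchor-drug dose plus five library-drug doses (not always all listed) in √10 steps. Relative viability is the nuclei count in treated wells divided by that in vehicle wells, and each value is the median of duplicate plates.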

Compound in assay [2]: O=C(c1cc(Cc2n[nH]c(=O)c3ccccc23)ccc1F)N1CCN(C(=O)C2CC2)CC1 [Olaparib] + COc1cc2c(Oc3ccc(NC(=O)C4(C(=O)Nc5ccc(F)cc5)CC4)cc3F)ccnc2cc1OCCCN1CCOCC1 [Foretinib] (partner 0.25 µM)
In outline:
as §1

Compound in assay [3]: O=C(c1cc(Cc2n[nH]c(=O)c3ccccc23)ccc1F)N1CCN(C(=O)C2CC2)CC1 [Olaparib] + Nc1ncn([C@H]2C[C@H](O)[C@@H](CO)O2)c(=O)n1 [Decitabine] (partner 2 µM)
In short, it runs like this:
as §1

Compound in assay [4]: C[C@@H](Oc1cc(-c2cnn(C3CCNCC3)c2)cnc1N)c1c(Cl)ccc(F)c1Cl [Crizotinib] + Nc1nc2[nH]cc(CCc3ccc(C(=O)N[C@@H](CCC(=O)O)C(=O)O)cc3)c2c(=O)[nH]1 [Pemetrexed] (partner 0.2 µM)
In short, it runs like this:
as §1

For the cell line UMC-11, the relative viability in assay [1] (first compound 0.001 µM) amounted to 0.66; in assay [1] (first compound 0.003162 µM) it was 0.887; in assay [1] (first compound 0.01 µM) it was 0.701; in assay [1] (first compound 0.03162 µM) it was 0.533; in assay [1] (first compound 0.1 µM), 0.179; in assay [2] (first compound 0.08 µM) it was 0.893. Besides, the relative viability in assay [2] (first compound 0.253 µM) came to 0.959; in assay [2] (first compound 2.53 µM), 0.784; in assay [2] (first compound 8 µM), 0.484; in assay [3] (first compound 0.08 µM), 0.497; in assay [3] (first compound 2.53 µM), 0.405; in assay [3] (first compound 8 µM) it was 0.4. Besides, the relative viability in assay [4] (first compound 0.01 µM) is 0.864; in assay [4] (first compound 0.03162 µM), 0.76; in assay [4] (first compound 0.1 µM), 0.732; in assay [4] (first compound 0.3162 µM), 0.814; in assay [4] (first compound 1 µM) it was 0.841.
